The source of these data is article PMC4230996 (Journal of Medicinal Chemistry, 2014).

Data set [1] relates to mGlu4. The settings on record: read-out: hEC50; human mGlu4 PAM potency; cited from earlier work.
The subject of the next data set is human mGlu4. The settings on record: read-out: IC50 (binding affinity to mGlu4); human mGlu4, Merck's patent; cited from earlier work.
The next data set concerns the target mGlu8 (Homo sapiens, UniProt O00222). Kind of data set: selectivity test, split luciferase biosensor cAMP assay in transfected CHO cells. The settings on record: single concentration 10 μM. The format is cell-based.
The subject of the next data set is mGlu1a. Kind of data set: selectivity functional assay, IPs accumulation in CHO cells. Conditions: single concentration 10 μM. Format: cell-based.
The nature of data set [2]: stability of 3 in neutral and acidic media by LC–MS. The format is physicochemical.
A further data set deals with mGlu5a. Kind of data set: selectivity functional assay, IPs accumulation in CHO cells. Format: cell-based. Conditions: single concentration 10 μM.
For data set [3], the target named is mGlu4 (Rattus norvegicus, UniProt P31423). Kind of data set: PET imaging of [^18F]3 in rats, baseline and blocking studies. The format is in vivo, rat (male Sprague–Dawley). Conditions: blocking agent 10 mg/kg injected 5 min before [^18F]3; uptake as area under TAC.
Chain of mGlu4 (Rattus norvegicus, UniProt P31423) (P31423 33-912): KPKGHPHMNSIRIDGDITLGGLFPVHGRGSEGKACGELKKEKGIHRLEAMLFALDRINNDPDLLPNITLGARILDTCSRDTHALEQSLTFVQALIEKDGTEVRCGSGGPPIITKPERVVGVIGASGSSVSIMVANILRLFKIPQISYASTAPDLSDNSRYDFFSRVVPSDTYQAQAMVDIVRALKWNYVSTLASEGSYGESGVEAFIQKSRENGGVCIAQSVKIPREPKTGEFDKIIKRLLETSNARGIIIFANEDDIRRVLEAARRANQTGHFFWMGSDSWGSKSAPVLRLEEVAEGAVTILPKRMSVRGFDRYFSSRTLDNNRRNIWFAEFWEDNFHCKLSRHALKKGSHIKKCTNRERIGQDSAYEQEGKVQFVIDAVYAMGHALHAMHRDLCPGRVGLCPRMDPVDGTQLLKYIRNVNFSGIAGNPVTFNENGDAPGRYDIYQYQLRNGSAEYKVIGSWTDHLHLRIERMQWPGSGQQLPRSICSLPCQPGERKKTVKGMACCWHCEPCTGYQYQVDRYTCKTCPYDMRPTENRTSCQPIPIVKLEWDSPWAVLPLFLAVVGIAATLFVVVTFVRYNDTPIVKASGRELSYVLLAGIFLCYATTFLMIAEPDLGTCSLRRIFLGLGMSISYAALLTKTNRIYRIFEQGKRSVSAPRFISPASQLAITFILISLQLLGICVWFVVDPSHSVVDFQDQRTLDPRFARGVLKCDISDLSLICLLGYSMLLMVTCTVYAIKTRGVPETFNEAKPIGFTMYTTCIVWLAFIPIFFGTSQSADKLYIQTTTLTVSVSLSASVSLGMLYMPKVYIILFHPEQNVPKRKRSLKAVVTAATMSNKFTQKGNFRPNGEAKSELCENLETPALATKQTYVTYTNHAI

Chain of mGlu8 (O00222 34-908): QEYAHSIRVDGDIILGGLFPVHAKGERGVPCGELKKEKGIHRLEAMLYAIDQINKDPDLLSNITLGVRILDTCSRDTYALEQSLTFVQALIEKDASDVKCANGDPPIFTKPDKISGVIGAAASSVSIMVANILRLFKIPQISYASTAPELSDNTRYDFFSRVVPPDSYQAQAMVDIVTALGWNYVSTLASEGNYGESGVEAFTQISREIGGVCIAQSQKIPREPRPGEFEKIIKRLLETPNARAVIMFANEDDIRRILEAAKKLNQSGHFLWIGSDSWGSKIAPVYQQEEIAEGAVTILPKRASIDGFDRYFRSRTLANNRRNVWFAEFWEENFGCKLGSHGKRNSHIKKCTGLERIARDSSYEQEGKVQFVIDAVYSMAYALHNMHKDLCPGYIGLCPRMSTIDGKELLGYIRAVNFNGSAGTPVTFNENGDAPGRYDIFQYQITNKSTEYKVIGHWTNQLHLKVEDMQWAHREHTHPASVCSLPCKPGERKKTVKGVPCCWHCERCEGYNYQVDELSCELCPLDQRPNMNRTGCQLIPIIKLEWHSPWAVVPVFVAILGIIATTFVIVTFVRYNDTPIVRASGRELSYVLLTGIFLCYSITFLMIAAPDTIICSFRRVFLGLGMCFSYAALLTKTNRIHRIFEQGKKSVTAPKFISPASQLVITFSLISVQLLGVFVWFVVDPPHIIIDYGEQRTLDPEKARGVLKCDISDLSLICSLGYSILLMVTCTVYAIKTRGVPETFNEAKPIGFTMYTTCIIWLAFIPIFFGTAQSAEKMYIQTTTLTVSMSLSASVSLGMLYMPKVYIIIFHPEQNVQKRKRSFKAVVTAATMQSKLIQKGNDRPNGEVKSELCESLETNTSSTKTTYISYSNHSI

As to `Cc1cccc2c1C(=O)N(c1ccc(NC(=O)c3ccccn3)cc1Br)C2=O` [Compound 5], the EC50 in the data set with mGlu4 [1] is 101 nM. Also, the IC50 in the data set on human mGlu4 was 12 nM.

For the molecule `O=C(Nc1ccc(N2C(=O)c3cccc(F)c3C2=O)c(Cl)c1)c1ccccn1` [Compound 3, N-(3-Chloro-4-(4-fluoro-1,3-dioxoisoindolin-2-yl)phenyl)-2-picolinamide], on mGlu8, the “agonist or antagonist activity at mGlu8” value is “little activity”. Further, the “agonist or antagonist activity at mGlu1” value in the data set with mGlu1a is “little activity”. For the same molecule, the “stability in neutral media” value in data set [2] (0.1 M ammonium formate water–acetonitrile solution) is recorded as “two side products were detected”. The “stability in acidic media” value in data set [2] (acidic media) is on record as “minimal hydrolysis products”. Besides, in the data set with mGlu5a, the “agonist or antagonist activity at mGlu5” value was “little activity”.

Take `COc1cc(NC(=O)c2ccccn2)ccc1Cl` [Compound 1, N-(chloro-3-methoxyphenyl)-2-picolinamide]: the EC50 in the data set on mGlu4 [1] was […].

With `O=C(Nc1cccc(OC(F)F)c1)c1ccccn1` [Compound 2, N-(3-(difluoromethoxy)phenyl)-2-picolinamide], on mGlu4 [3], the “reduced uptake of [^18F]3 in rat brain regions (blocking effect)” value is listed as 10–20%.

Usually IC50 stands for the concentration that gives 50% inhibition.
